Consider 2 compounds from ChEMBL document CHEMBL1130436, “Synthesis and opioid activity of conformationally constrained dynorphin A analogues. 2. Conformational constraint in the "address" sequence” (J Med Chem, 1997).

The species named for one assay is Cavia porcellus. Briefly: Opioid activity in guinea pig ileum. The format is functional.
In another assay the target is Mu-type opioid receptor (Cavia porcellus, UniProt P97266). Briefly: Binding affinity of compound was measured on Opioid receptor mu 1 by competitive inhibition of radioligand [3H]DAMGO using cloned receptors transiently expressed on COS-7 (monkey kidney) cells. The format is cell-based.
Assay [1] addresses Kappa-type opioid receptor (Cavia porcellus, UniProt P41144). Briefly: Binding affinity of compound was measured on Opioid receptor kappa 1 by competitive inhibition of radioligand [3H]diprenorphine using cloned receptors transiently expressed on COS-7 (monkey kidney) cells. The format is cell-based.
Assay [2] deals with Delta-type opioid receptor (Homo sapiens, UniProt P41143). Kind of assay: Binding affinity of compound was measured on Opioid receptor delta 1 by competitive inhibition of radioligand [3H]DPDPE using cloned receptors transiently expressed on COS-7 (monkey kidney) cells. Type of assay: cell-based.

One may read the IC50 as the concentration that gives 50% inhibition. Usually Ki stands for a dissociation constant, usually derived from enzyme kinetics or from competition with a known ligand. For `CC[C@H](C)[C@H](NC(=O)[C@H](CCCNC(=N)N)NC(=O)[C@@H]1CCNC(=O)C[C@@H](NC(=O)CNC(=O)[C@@H](N)Cc2ccc(O)cc2)C(=O)N[C@@H](Cc2ccccc2)C(=O)N[C@@H](CC(C)C)C(=O)N1)C(=O)N[C@@H](CCCNC(=N)N)C(=O)N1CCC[C@H]1C(=O)N[C@@H](CCCCN)C(=O)N[C@@H](CC(C)C)C(=O)N[C@@H](CCCCN)C(N)=O`, half-maximal inhibition in the assay listed under Cavia porcellus (IC50) was put at 880 nM. Besides, the Ki at Mu-type opioid receptor amounted to 210 nM; in assay [1] it was 270 nM; in assay [2], 1000 nM.

The compound `CC[C@H](C)[C@H](NC(=O)[C@H](CCCNC(=N)N)NC(=O)[C@@H]1CNC(=O)C[C@@H](NC(=O)CNC(=O)[C@@H](N)Cc2ccc(O)cc2)C(=O)N[C@@H](Cc2ccccc2)C(=O)N[C@@H](CC(C)C)C(=O)N1)C(=O)N[C@@H](CCCNC(=N)N)C(=O)N1CCC[C@H]1C(=O)N[C@@H](CCCCN)C(=O)N[C@@H](CC(C)C)C(=O)N[C@@H](CCCCN)C(N)=O` registered an IC50 in the assay listed under Cavia porcellus of 1000 nM. Moreover, the values for the Ki (on Mu-type opioid receptor; in assay [1]; in assay [2]) were 910 nM, 480 nM and 2800 nM, respectively.
